Results taken from ChEMBL document CHEMBL1201862, “PubChem BioAssay data set” (2004).
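All cell lines were grown in 96-well plates and treated with compound for 48 hours. At the GI50, growth is halved.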 Calls of active or inactive are those of the source. Rule as the data show it: active = GI50 up to about 1.1 µM and inactive = higher.

Tests used:
Test in all cases: NCI anticancer screen, dose series, 48 h
786-0 = system: 786-0
A498 = system: A498
A549 = system: A549
CCRF-CEM = system: CCRF-CEM
DU-145 = system: DU-145
EKVX = system: EKVX
HCT-116 = system: HCT-116
HOP-62 = system: HOP-62
HOP-92 = system: HOP-92
HT-29 = system: HT-29
Hs-578T = system: Hs-578T
IGROV-1 = system: IGROV-1
K562 = system: K562
LOX IMVI = system: LOX IMVI
M14 = system: M14
MOLT-4 = system: MOLT-4
Malme-3M = system: Malme-3M
NCI-H226 = system: NCI-H226
NCI-H23 = system: NCI-H23
NCI-H460 = system: NCI-H460
NCI/ADR-RES = system: NCI/ADR-RES
OVCAR-3 = system: OVCAR-3
OVCAR-4 = system: OVCAR-4
OVCAR-5 = system: OVCAR-5
OVCAR-8 = system: OVCAR-8
RPMI-8226 = system: RPMI-8226
SF-295 = system: SF-295
SK-MEL-28 = system: SK-MEL-28
SK-MEL-5 = system: SK-MEL-5
SNB-19 = system: SNB-19
SR = system: SR
SW-620 = system: SW-620
UACC-257 = system: UACC-257
ACHN = system: ACHN
CAKI-1 = system: CAKI-1
COLO 205 = system: COLO 205
HCC 2998 = system: HCC 2998
HCT-15 = system: HCT-15
HL-60 = system: HL-60
KM12 = system: KM12
MCF7 = system: MCF7
MDA-MB-231 = system: MDA-MB-231
MDA-MB-435 = system: MDA-MB-435
MDA-N = system: MDA-N
NCI-H522 = system: NCI-H522
PC-3 = system: PC-3
RXF 393 = system: RXF 393
SF-268 = system: SF-268
SF-539 = system: SF-539
SK-MEL-2 = system: SK-MEL-2
SK-OV-3 = system: SK-OV-3
SN12C = system: SN12C
SNB-75 = system: SNB-75
TK-10 = system: TK-10
U-251 = system: U-251
UACC-62 = system: UACC-62
UO-31 = system: UO-31

O=c1c2ccccc2nc2n1CCc1c-2[nH]c2ccc(Br)cc12
GI50 (786-0): 31.8 µM (inactive)
GI50 (A498): > 100 µM (inactive)
GI50 (A549): 43.8 µM (inactive)
GI50 (CCRF-CEM): > 100 µM (inactive)
GI50 (DU-145): > 100 µM (inactive)
GI50 (EKVX): > 100 µM (inactive)
GI50 (HCT-116): 48.9 µM (inactive)
GI50 (HOP-62): 16.3 µM (inactive)
GI50 (HOP-92): 91.2 µM (inactive)
GI50 (HT-29): 45.5 µM (inactive)
GI50 (Hs-578T): > 100 µM (inactive)
GI50 (IGROV-1): > 100 µM (inactive)
GI50 (K562): > 100 µM (inactive)
GI50 (LOX IMVI): > 100 µM (inactive)
GI50 (M14): > 100 µM (inactive)
GI50 (MOLT-4): > 100 µM (inactive)
GI50 (Malme-3M): > 100 µM (inactive)
GI50 (NCI-H226): > 100 µM (inactive)
GI50 (NCI-H23): > 100 µM (inactive)
GI50 (NCI-H460): > 100 µM (inactive)
GI50 (NCI/ADR-RES): > 100 µM (inactive)
GI50 (OVCAR-3): > 100 µM (inactive)
GI50 (OVCAR-4): 6.43 µM (inactive)
GI50 (OVCAR-5): > 100 µM (inactive)
GI50 (OVCAR-8): 11.1 µM (inactive)
GI50 (RPMI-8226): > 100 µM (inactive)
GI50 (SF-295): 8.61 µM (inactive)
GI50 (SK-MEL-28): > 100 µM (inactive)
GI50 (SK-MEL-5): 46 µM (inactive)
GI50 (SNB-19): > 100 µM (inactive)
GI50 (SR): > 100 µM (inactive)
GI50 (SW-620): 59 µM (inactive)
GI50 (UACC-257): > 100 µM (inactive)

O=C1C(C(O)(C(F)(F)F)C(F)(F)F)CCC1C(O)(C(F)(F)F)C(F)(F)F (stereo not given)
GI50 (786-0): 3.87 µM (inactive)
GI50 (A498): 0.964 µM (active)
GI50 (A549): 1.91 µM (inactive)
GI50 (ACHN): 1.8 µM (inactive)
GI50 (CAKI-1): 0.341 µM (active)
GI50 (CCRF-CEM): 1.15 µM (inactive)
GI50 (COLO 205): 0.0481 µM (active)
GI50 (DU-145): 7.96 µM (inactive)
GI50 (EKVX): 8.13 µM (inactive)
GI50 (HCC 2998): 0.323 µM (active)
GI50 (HCT-116): 0.556 µM (active)
GI50 (HCT-15): 28.3 µM
GI50 (HL-60): 1.16 µM (inactive)
GI50 (HOP-62): 0.569 µM (active)
GI50 (HOP-92): < 0.01 µM (active)
GI50 (HT-29): 0.301 µM (active)
GI50 (Hs-578T): 1.37 µM (inactive)
GI50 (IGROV-1): 5.48 µM (inactive)
GI50 (K562): 3.64 µM (inactive)
GI50 (KM12): 0.946 µM (active)
GI50 (LOX IMVI): 0.594 µM (active)
GI50 (M14): 8.71 µM (inactive)
GI50 (MCF7): 0.174 µM (active)
GI50 (MDA-MB-231): 0.746 µM (active)
GI50 (MDA-MB-435): 13.2 µM (inactive)
GI50 (MDA-N): > 36.7 µM (inactive)
GI50 (MOLT-4): 0.341 µM (active)
GI50 (Malme-3M): 1.06 µM (active)
GI50 (NCI-H226): 0.33 µM (active)
GI50 (NCI-H23): 0.769 µM (active)
GI50 (NCI-H460): 8.83 µM (inactive)
GI50 (NCI-H522): 1.29 µM (inactive)
GI50 (NCI/ADR-RES): 2.33 µM (inactive)
GI50 (OVCAR-3): 0.918 µM (active)
GI50 (OVCAR-4): 1.18 µM (inactive)
GI50 (OVCAR-5): 9.98 µM (inactive)
GI50 (OVCAR-8): 8.75 µM (inactive)
GI50 (PC-3): 0.176 µM (active)
GI50 (RPMI-8226): 0.142 µM (active)
GI50 (RXF 393): 0.346 µM (active)
GI50 (SF-268): 5.7 µM (inactive)
GI50 (SF-295): 0.849 µM (active)
GI50 (SF-539): 6.82 µM (inactive)
GI50 (SK-MEL-28): 3.16 µM (inactive)
GI50 (SK-MEL-2): 0.522 µM (active)
GI50 (SK-MEL-5): 1.72 µM (inactive)
GI50 (SK-OV-3): 23 µM (inactive)
GI50 (SN12C): 0.684 µM (active)
GI50 (SNB-19): 17.9 µM (inactive)
GI50 (SNB-75): 0.234 µM (active)
GI50 (SR): 0.215 µM (active)
GI50 (SW-620): 5.89 µM (inactive)
GI50 (TK-10): 42.1 µM (inactive)
GI50 (U-251): 13.5 µM (inactive)
GI50 (UACC-257): 7.67 µM (inactive)
GI50 (UACC-62): 1.78 µM (inactive)
GI50 (UO-31): 1.09 µM (active)
